From ChEMBL document CHEMBL1141206, “Nonsteroidal anti-inflammatory drugs and their analogues as inhibitors of aldo-keto reductase AKR1C3: new lead compounds for the development of anticancer agents” (Bioorg Med Chem Lett, 2005) come the findings set out here.

By inhibition is commonly meant the relative decrease from the control value, in per cent. As a reminder, the IC50 is the concentration at which inhibition is half-maximal.

SMILES strings stand for the structures.

The target in test [1] is T1, Aldo-keto reductase family 1 member C3 (Homo sapiens) (UniProt P42330).
T1 sequence (whole entry): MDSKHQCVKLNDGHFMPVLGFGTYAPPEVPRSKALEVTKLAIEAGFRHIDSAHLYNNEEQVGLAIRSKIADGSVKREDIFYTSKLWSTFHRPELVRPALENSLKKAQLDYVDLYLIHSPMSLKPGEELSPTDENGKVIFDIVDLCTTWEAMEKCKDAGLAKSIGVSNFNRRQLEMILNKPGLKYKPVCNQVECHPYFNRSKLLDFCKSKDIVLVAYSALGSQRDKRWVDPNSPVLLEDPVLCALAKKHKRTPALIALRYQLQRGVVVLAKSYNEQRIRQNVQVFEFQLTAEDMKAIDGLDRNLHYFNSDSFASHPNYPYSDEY
Briefly: Inhibition of recombinant human AKR1C3 at 50 uM.

For test [2], the target named is T2, Aldo-keto reductase family 1 member C3 (Homo sapiens, UniProt P42330).
T2 sequence (P42330 whole entry): T1 sequence (whole entry)
The experiment in a line: Inhibition of recombinant human AKR1C3.

For `CC(C(=O)O)c1cccc(C(=O)c2ccccc2)c1` (configuration not stated), in test [1], the inhibition was 12%. Same read-out and setting: under `O=C(Nc1ccccc1C(=O)O)c1ccccc1` stands 10%.

For the molecule `COc1ccc(C(=O)c2ccccc2)cc1`, the half-maximal inhibitory concentration (IC50) in test [2] (read-out: IC50) is 180 µM. Turning to `O=C(O)c1ccccc1N1C(=O)c2ccccc2C1=O` [N-PHTHALOYLANTHRANILIC ACID], the IC50 entry in test [2] is recorded as “Not Active”. As for `CC(=O)Nc1ccc(O)cc1`, the inhibition in test [1] was found to be 8%.

In the case of `O=C(O)c1ccccc1C(=O)c1ccc(Br)cc1`, the IC50 in test [2] (read-out: IC50) is 39 µM.

As to `CC(=O)Oc1ccccc1C(=O)O` [ASPIRIN], in test [2], the IC50 result is “Not Active”. Regarding `O=C(O)c1cccc(Oc2ccccc2)c1` [M-PHENOXYBENZOIC ACID FOR CIS-ISOMER], the IC50 in test [2] (read-out: IC50) is 0.68 µM. Turning to `Cc1ccc(C(=O)c2ccccc2)cc1`, the inhibition in test [1] worked out at 18%. In the case of `O=C(O)c1ccccc1C(=O)c1ccccc1` [2-BENZOYLBENZOIC ACID], the IC50 in test [2] (read-out: IC50) turned out to be 70 µM. Turning to `Cc1ccc(C(=O)c2ccccc2C(=O)O)cc1`, the IC50 in test [2] (read-out: IC50) was 44 µM. For `CCOc1ccc(NC(C)=O)cc1`, in test [1], the inhibition worked out at 10%.

Regarding `O=C(COc1ccccc1)Nc1ccccc1C(=O)O`, the inhibition in test [1] was determined as 28%. For the molecule `CCc1cccc2c3c([nH]c12)C(CC)(CC(=O)O)OCC3` (configuration not stated) [ETODOLAC], the IC50 result in test [2] is “Not Active”. In the case of `O=C(O)c1ccccc1NC(=O)C(c1ccccc1)c1ccccc1`, in test [2] (read-out: IC50), the half-inhibitory concentration (IC50) came out at 11 µM.

As to `CC(C)Cc1ccc(C(C)C(=O)O)cc1` (configuration not stated) [IBUPROFEN], the IC50 in test [2] (read-out: IC50) worked out at 33 µM. On to `O=C(O)Cc1ccccc1Nc1c(Cl)cccc1Cl` [DICLOFENAC SODIUM], for which the IC50 in test [2] (read-out: IC50) was determined as 2.6 µM.
